Legend:
MCF-7 breast cancer cell = test: MTT cell growth inhibition assay, MCF-7 breast cancer cells; type: cell-based; conditions: Homo sapiens, MCF7, mean ± SD of three experiments
Text: Initially, we designed and synthesised seven compounds—9a and 12a1–12a6—and evaluated the anticancer activity and aqueous solubility. We evaluated the cytotoxic effects of these stilbene nitrile analogues against a panel of four human cancer cell lines (HCT-116, BEL-7402, MCF-7 and AGS) and two human non-cancerous normal cell lines (L-02 and MCF-10A), using CA-4 as a control. The compounds were screened for aqueous solubility in 0.01 M PBS using a high throughput UV method. […] It is possible that the size of the nitrogen heterocycle had little effect on the activity of these compounds. […] The aqueous solubility of all the compounds 12a1–12a6 was higher than that of 9a, particularly that of 12a1 and 12a2 containing piperazine rings. […] Of the six compounds with improved aqueous solubility, 12a1 had the best activity.
All human cell lines were used in this study. AGS gastric cancer cell, BEL-7402 liver cancer cell, HCT-116 colorectal cancer cell, L-02 normal liver cell, MCF-7 breast cancer cell, and MCF-10A normal breast cell were initially purchased from American Type Culture Collection (ATCC, Manassas, VA, USA). RPMI-1640 media, DMEM and FBS, were provided by Gibco Company. The cells were maintained in DMEM or RPMI-1640, supplemented with 10% FBS, 100 IU/mL penicillin and […] streptomycin, and at 37 °C in a humidified atmosphere containing 5% CO2.
The experiment was carried out according to the method of reference.

[1] = Drug-plasma protein binding rate, equilibrium dialysis; type: in vitro ADME; conditions: rat, equilibrium dialysis vs phosphate buffer pH 7.4, 4 °C
Description: Compounds at 90 μM concentration were mixed with rat plasma, and the mixtures were subjected to equilibrium dialysis versus phosphate buffer (pH 7.4) at 4 °C for 48 h. The dialysis membrane of molecular weight cut off 1 kDa was used. Dialysis experiments were done in triplicate. On completion of the dialysis period, absorb a certain amount of buffer and plasma, respectively, and add methanol to treat the sample. Dialysis samples were analysed by HPLC. The plasma protein binding rate of the compound was calculated as follows: protein binding rate/% = (plasma drug concentration inside dialysis bag—dialysate drug concentration outside dialysis bag)/plasma drug concentration inside dialysis bag × 100%. […]
injection volume was 3 μL. The column temperature was set at 40℃.
1.7. The drug-plasma protein binding rate assessment
Compound 12a1 at 90 μM concentration were mixed with rats plasma. The mixtures were subjected to equilibrium dialysis versus phosphate buffer pH 7.4 buffer at 4℃ for 48 hour using equilibrium dialysis. The dialysis membrane of molecular weight cutoff 1 kDa was used. […] Dialysis samples were analyzed by HPLC, The plasma protein binding rate of the compound was calculated as follows: protein binding rate ∕ % = (plasma drug concentration inside dialysis bag − dialysate drug concentration outside dialysis bag) ∕ plasma drug concentration inside dialysis bag × […]

[2] = Compound stability in rat plasma, HPLC; type: in vitro ADME; conditions: 37 °C
Description: Blood was collected from SD rats (200–250 g, male and female, Animal Experimental Center of Yanbian University) into heparin tubes, and supernatant plasma was collected after centrifugation.
A certain amount of 9a and 12a1 were accurately weighed and mixed with rat plasma. After incubation at 37 ℃ for 0, 6, 12, 24 and 36 h, the plasma samples were treated with methanol and analyzed by HPLC to determine their stability in plasma.
A HITACHI Primaide HPLC liquid chromatography system was equipped and used for all analyses. Chromatographic separation was performed on a Welch Ultimate XB-C18 column (3.9 mm × 150 mm, 5 μm; Welch, China). The analytes were eluted using a gradient method with a flow rate of 1 mL/min. Mobile phase A was Ultra pure water, and mobile phase B was methanol according to the following gradient: (1) The gradient elution conditions of 9a: 0 to 8 min, 55% to 67% B; 8.1 to 15 min, 67% to 90% B; 15.1 to 25 min, 55% B. (2) The gradient elution conditions of 12a1: 0 to 9 min, 55% to 65% B; 9.1 to 12 min, 65% to 75% B; 12.1 to 15 min, 75% to 85% B; 15.1 to 20 min, 90% B; 20.1 to 30 min, 55% B. The injection volume was 3 μL. The column temperature was set at 40 °C. […]
1.6. Plasma stability assessment
Prepare plasma:blood was collected from SD rats (200-250g, male and female, Animal Experimental Center of Yanbian University) into heparin tubes, and supernatant plasma was collected after centrifugation.
A certain amount of 9a and 12a1 were accurately weighed and mixed with rat plasma.
After incubation at 37℃ for 0 h, 6 h, 12 h, 24 h and 36 h, the plasma samples were treated with methanol and analyzed by HPLC to determine their stability in plasma.
Analytical instrument and conditions:
A HITACHI Primaide HPLC liquid chromatography system equipped was used for all analyses. Chromatographic separation was performed on a Welch Ultimate XB-C18 column (3.9 mm × 150 mm, 5 μm; Welch, China). The analytes were eluted using a gradient method with a flow rate of 1 mL/min. Mobile phase A was Ultra pure water, and mobile phase B was methanol according to the following gradient: (1). The gradient elution conditions of 9a: 0 to 8 minutes, 55% to 67% B; 8.1 to 15 minutes, 67% to 90% B; 15.1 to 25 minutes, 55% B. (2). The gradient elution conditions of […]

Q: Which results are given for `COc1cc(/C(C#N)=C/c2ccc(NC(=O)CN3CCN(C)CC3)cc2)cc(OC)c1OC` [12a1]?
A: IC50 (MCF-7 breast cancer cell): 16.1 ± 2.7 µM; fraction unbound at 48 h, 90 μM [1]: 0.393; Decrease of HPLC peak area in rat plasma ([2]; within 36 h, UV 294 nm): ~22%; Plasma stability (in words) ([2]; rat plasma, 24 h): retained plasma stability over 24 h

Source: publication PMC9963121, “Development of Combretastatin A-4 Analogues as Potential Anticancer Agents with Improved Aqueous Solubility” (Molecules, 2023)
